Reference: article PMC6835155, “Lessons from LIMK1 enzymology and their impact on inhibitor design” (Biochemical Journal, 2019)
Structures can show the parent of a compound that is named as a salt.

Tests used:
[1] = molecular target: T1, LIMK2KD (Homo sapiens, UniProt P53671); assay: Differential (dynamic) scanning fluorimetry (DSF) assay, LIMK2KD; format: binding; details: LIMK2KD, compound 10 µM, single shot; for ΔTm at 10 µM: read-out: TM Shift LIMK2 (K)
T1 construct: The cDNA coding for LIMK2 residues 330 to 632 was PCR amplified; His6 (N, cleaved yes); made in house; host or cells: baculovirus; Sf9 for virus, TriEx insect cells for expression
T1 sequence (P53671 330-632): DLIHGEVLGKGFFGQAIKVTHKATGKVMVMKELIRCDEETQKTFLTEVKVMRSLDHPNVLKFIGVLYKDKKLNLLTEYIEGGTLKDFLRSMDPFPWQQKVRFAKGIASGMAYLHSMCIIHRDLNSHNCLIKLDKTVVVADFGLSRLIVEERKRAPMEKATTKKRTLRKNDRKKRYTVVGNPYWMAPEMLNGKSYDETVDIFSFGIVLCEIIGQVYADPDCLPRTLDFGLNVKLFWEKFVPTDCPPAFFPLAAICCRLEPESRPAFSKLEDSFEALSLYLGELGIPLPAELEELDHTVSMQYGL

[2] = molecular target: T2, LIMK1KD (Homo sapiens, UniProt P53667); assay: Differential (dynamic) scanning fluorimetry (DSF) assay, LIMK1KD; format: binding; details: 2 µM LIMK1KD, compound 10 µM, single shot; for ΔTm at 10 µM: read-out: TM Shift LIMK1 (K)
T2 construct: His6 (N, cleaved yes); made in house; host or cells: baculovirus; Sf9 for virus, TriEx insect cells for expression
T2 sequence (P53667 330-637): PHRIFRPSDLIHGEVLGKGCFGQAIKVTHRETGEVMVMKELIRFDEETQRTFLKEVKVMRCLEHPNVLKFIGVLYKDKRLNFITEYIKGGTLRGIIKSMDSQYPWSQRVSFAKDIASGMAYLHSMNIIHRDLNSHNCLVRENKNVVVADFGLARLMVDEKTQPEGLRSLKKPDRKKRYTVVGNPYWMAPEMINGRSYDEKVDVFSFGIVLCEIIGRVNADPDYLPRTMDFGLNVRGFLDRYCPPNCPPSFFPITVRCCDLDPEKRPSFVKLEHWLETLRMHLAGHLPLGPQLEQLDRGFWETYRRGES

Compound | TM Shift LIMK2 (K) [1] | TM Shift LIMK1 (K) [2] | ΔTm at 10 µM [1] | ΔTm at 10 µM [2] | TM Shift LIMK2 (K) ([1]; 10 µM)
CC(C)(C)n1nc(-c2ccc(Cl)cc2)c2c(N)ncnc21 [PP2] | 2.4 K | 2.0 K |  |  | 
Nc1ncnc2c1c(-c1cnc3[nH]ccc3c1)nn2C1CCCC1 [PP121] | 2.7 K | 3.6 K |  |  | 
NC(=O)c1cnc(N[C@@H]2CCCC[C@@H]2N)nc1Nc1cccc(-n2nccn2)c1 [PRT062607 (P505-15, BIIB057) HCl] |  |  | -1 °C | -0.6 °C | 
C1=C/COCc2cc(ccc2OCCN2CCCC2)Nc2nccc(n2)-c2cccc(c2)COC/1 [Pacritinib (SB1518), Pacritinib] |  |  | 1.5 °C | 1.6 °C | 
CC(=O)c1c(C)c2cnc(Nc3ccc(N4CCNCC4)cn3)nc2n(C2CCCC2)c1=O [Palbociclib (PD-0332991) HCl, Palbociclib] |  |  | 0.2 °C | 0.5 °C | 
CS(=O)(=O)N1CCN(Cc2cc3nc(-c4cccc5[nH]ncc45)nc(N4CCOCC4)c3s2)CC1 [Pictilisib] |  | 2.2 K |  |  | 0.1 K
COc1ccc(Cl)c(Nc2nc3ccccc3nc2NS(=O)(=O)c2cccc(NC(=O)C(C)(C)N)c2)c1 [Pilaralisib] |  |  | 0.4 °C | -0.1 °C | 
Cc1ccc(C(=O)Nc2ccc(CN3CCN(C)CC3)c(C(F)(F)F)c2)cc1C#Cc1cnc2cccnn12 [Ponatinib (AP24534), Ponatinib] |  |  | 4.6 °C | 5 °C | 
Cc1cnc(NC(=O)Nc2cc(Br)c(C)cc2OC[C@@H]2CNCCO2)cn1 [Rabusertib] |  | -1.1 K |  |  | 0.2 K
CO[C@H]1C[C@@H]2CC[C@@H](C)[C@@](O)(O2)C(=O)C(=O)N2CCCC[C@H]2C(=O)O[C@H]([C@H](C)C[C@@H]2CC[C@@H](O)[C@H](OC)C2)CC(=O)[C@H](C)/C=C(\C)[C@@H](O)[C@@H](OC)C(=O)[C@H](C)C[C@H](C)/C=C/C=C/C=C/1C [Rapamycin (Sirolimus), Rapamycin] |  |  | 0 °C | -0.1 °C | 
COc1cc(F)c(F)c(Nc2ccc(I)cc2F)c1NS(=O)(=O)C1(C[C@H](O)CO)CC1 [Refametinib] |  |  | 1.1 °C | -1 °C | 
CS(=O)(=O)O.Cn1cc(C2=C(c3cn(CCCSC(=N)N)c4ccccc34)C(=O)NC2=O)c2ccccc21 [Ro 31-8220 Mesylate] | 1.2 K | 1.6 K |  |  | 

Continued, values first:

TM Shift LIMK2 (K) [1] | TM Shift LIMK1 (K) [2] | ΔTm at 10 µM [1] | ΔTm at 10 µM [2] | TM Shift LIMK2 (K) ([1]; 10 µM) | Compound
0.0 K | 2.0 K |  |  |  | Cc1ccc(-c2nn(C(C)(C)C)c3ncnc(N)c23)cc1 [PP1]
-0.9 K | 0.2 K |  |  |  | COc1ccc(Cl)cc1NC(=O)Nc1cc(C)nc2ccccc12 [PQ 401]
10.6 K | 0.0 K |  |  |  | COc1ccc(COc2cc3oc(=O)c4cc(C(C)O)ccc4c3cc2OC)cc1 (centres unmarked) [Palomid 529 (P529)]
 |  | 1.5 °C | -0.7 °C |  | CCOc1cc2ncc(C#N)c(Nc3ccc(F)c(Cl)c3)c2cc1NC(=O)/C=C/CN(C)C [Pelitinib (EKB-569), Pelitinib]
 |  | 0.6 °C | -0.3 °C |  | [H]/N=C(/N)N/C(=N/[H])NCCc1ccccc1 [Phenformin HCl]
 |  | 0.8 °C | -0.6 °C |  | Oc1cc(O)cc(/C=C/c2ccc(O)c(O)c2)c1 [Piceatannol]
 |  | 2.1 °C | 0.8 °C |  | O=C(NC[C@H](O)CO)c1ccncc1Nc1ccc(I)cc1F [Pimasertib (AS-703026), Pimasertib]
 |  | 1.3 °C | -1.4 °C |  | CC(C)(C)c1cc(NC(=O)Nc2ccc(-c3cn4c(n3)sc3cc(OCCN5CCOCC5)ccc34)cc2)no1 [Quizartinib (AC220), Quizartinib]
-0.2 K | 0.1 K |  |  |  | COc1ccc(F)c(F)c1C(=O)c1cnc(NC2CCN(S(C)(=O)=O)CC2)nc1N [R547]
 |  | 5.1 °C | 1.1 °C |  | Cn1c(Nc2ccc(C(F)(F)F)cc2)nc2cc(Oc3ccnc(-c4ncc(C(F)(F)F)[nH]4)c3)ccc21 [RAF265 (CHIR-265)]
0.8 K | 1.4 K |  |  |  | O=C(NCc1cccc(O)c1)Nc1nc(-c2ccncc2)cs1 [RKI-1447]
 |  | 3.1 °C | 3.2 °C |  | CC(C)(C)Cn1c(N)nc2ccc(-c3[nH]c(C(C)(C)C)nc3-c3ccc(F)cc3)nc21 [Ralimetinib]
 |  | 0.7 °C | 0 °C |  | CNC(=O)c1cc(Oc2ccc(NC(=O)Nc3ccc(Cl)c(C(F)(F)F)c3)c(F)c2)ccn1 [Regorafenib (BAY 73-4506), Regorafenib]
 |  | 0.2 °C | 0.1 °C |  | CO[C@H]1C[C@@H]2CC[C@@H](C)[C@@](O)(O2)C(=O)C(=O)N2CCCC[C@H]2C(=O)O[C@H]([C@H](C)C[C@@H]2CC[C@@H](OP(C)(C)=O)[C@H](OC)C2)CC(=O)[C@H](C)/C=C(\C)[C@@H](O)[C@@H](OC)C(=O)[C@H](C)C[C@H](C)/C=C/C=C/C=C/1C [Ridaforolimus (Deforolimus, MK-8669), Ridaforolimus]
 |  | 1.6 °C | 2.7 °C |  | COc1cc(OC)c(/C=C/S(=O)(=O)Cc2ccc(OC)c(NCC(=O)O)c2)c(OC)c1 [Rigosertib (ON-01910), Rigosertib]
 |  | 0.4 °C | 1 °C |  | CN(C)C[C@@H]1CCn2cc(c3ccccc32)C2=C(C(=O)NC2=O)c2cn(c3ccccc23)CCO1 [Ruboxistaurin]
